Measured values from PMC8000592, “Discovery and Optimization of Selective Inhibitors of Meprin α (Part I)” (Pharmaceuticals, 2021).

Columns and labels:
Experiment in all cases: MMP assay (Mca-KPLGL-Dpa-AR-NH2 substrate)
Assay type in all cases: biochemical
Settings in all cases: triplicate, 10-point, 3:1 serial dilution, highest concentration 17.4 µM
[1] = target: T1, MMP8 (Homo sapiens, UniProt P22894)
T1 construct: purchased R&D Systems 908-MP
Protocol: (§1) In addition to meprins, we also tested 64 hits against related metzincins (MMP-2, MMP-3, MMP-8, MMP-9, MMP-10, MMP-14, ADAM10, and ADAM17) to ascertain general nonpromiscuity against zinc-dependent proteases.
(§2) All assays followed the same general protocol. […] After 30 min incubation at RT, the reactions were started by addition of 5 µL of 2x solutions of substrate (R&D Systems cat#: ES010, Mca-KPLGL-Dpa-AR-NH2, 20 µM). Reactions were incubated at RT for 1 h, after which the fluorescence was measured using the Synergy H4 multimode microplate reader (Biotek Instruments) (λexcitation = 324 nm, λemission = 390 nm).

[2] = target: T2, MMP10 (Homo sapiens, UniProt P09238)
T2 construct: purchased R&D Systems 910-MP
T2 sequence (P09238 99-476): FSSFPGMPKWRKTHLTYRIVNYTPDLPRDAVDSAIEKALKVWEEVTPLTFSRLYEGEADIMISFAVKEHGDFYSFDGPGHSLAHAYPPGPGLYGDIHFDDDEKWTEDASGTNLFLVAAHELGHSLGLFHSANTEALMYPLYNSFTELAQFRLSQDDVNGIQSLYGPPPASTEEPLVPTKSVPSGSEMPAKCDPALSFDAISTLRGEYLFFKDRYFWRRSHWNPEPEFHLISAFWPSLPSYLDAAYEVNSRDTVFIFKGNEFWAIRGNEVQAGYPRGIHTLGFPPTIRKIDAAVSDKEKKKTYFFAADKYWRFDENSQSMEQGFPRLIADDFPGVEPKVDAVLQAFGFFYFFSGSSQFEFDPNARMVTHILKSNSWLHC
Protocol: as §1, §2

[3] = target: T3, MMP14 (Homo sapiens, UniProt P50281)
T3 construct: purchased R&D Systems 918-MP
Protocol: as §1, §2

[4] = target: T4, MMP9 (Homo sapiens, UniProt P14780)
T4 construct: purchased R&D Systems 911-MP
T4 sequence (P14780 94-707): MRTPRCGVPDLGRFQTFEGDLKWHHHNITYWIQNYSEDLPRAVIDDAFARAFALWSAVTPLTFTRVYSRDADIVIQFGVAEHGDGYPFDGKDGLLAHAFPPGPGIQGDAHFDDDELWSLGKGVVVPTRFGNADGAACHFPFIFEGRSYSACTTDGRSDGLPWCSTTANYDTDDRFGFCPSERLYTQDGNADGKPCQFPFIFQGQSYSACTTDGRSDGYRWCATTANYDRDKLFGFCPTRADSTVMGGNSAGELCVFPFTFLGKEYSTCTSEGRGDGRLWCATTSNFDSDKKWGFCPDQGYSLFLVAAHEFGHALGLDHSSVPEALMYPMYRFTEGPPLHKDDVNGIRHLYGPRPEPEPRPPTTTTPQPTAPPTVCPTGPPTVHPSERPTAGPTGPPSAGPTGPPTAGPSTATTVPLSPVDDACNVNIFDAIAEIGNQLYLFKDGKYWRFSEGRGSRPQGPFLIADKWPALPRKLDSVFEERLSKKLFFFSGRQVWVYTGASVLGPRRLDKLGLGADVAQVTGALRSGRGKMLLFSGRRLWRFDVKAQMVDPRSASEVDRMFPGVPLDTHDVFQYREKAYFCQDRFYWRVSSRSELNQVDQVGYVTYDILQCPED
Protocol: (§3) We were able to procure 64 out of 87 selected compounds from commercial sources, which we tested in triplicate, 10-point, 3:1 serial dilution concentration response format starting at the highest concentration of 17.4 µM against both meprin α and meprin β. In addition to meprins, we also tested 64 hits against related metzincins (MMP-2, MMP-3, MMP-8, MMP-9, MMP-10, MMP-14, ADAM10, and ADAM17) to ascertain general nonpromiscuity against zinc-dependent proteases.
(§4) All assays followed the same general protocol. A 5 µL portion of 2 × enzyme solution (5 nM) in assay buffer (50 mM Tricine, 50 mM NaCl, 10 mM CaCl2, 0.05% Brij-35, pH 7.5) was added to solid bottom black 384 plates (Nunc, cat# 264705). Next, test compounds and pharmacological controls were added to corresponding wells using a 384-pin tool device (V&P Scientific, San Diego, CA, USA). After 30 min incubation at RT, the reactions were started by addition of 5 µL of 2x solutions of substrate (R&D Systems cat#: ES010, Mca-KPLGL-Dpa-AR-NH2, 20 µM). Reactions were incubated at RT for 1 h, after which the fluorescence was measured using the Synergy H4 multimode microplate reader (Biotek Instruments) (λexcitation = 324 nm, λemission = 390 nm).

[5] = target: T5, MMP2 (Homo sapiens, UniProt P08253)
T5 construct: purchased R&D Systems 902-MP
T5 sequence (P08253 110-660): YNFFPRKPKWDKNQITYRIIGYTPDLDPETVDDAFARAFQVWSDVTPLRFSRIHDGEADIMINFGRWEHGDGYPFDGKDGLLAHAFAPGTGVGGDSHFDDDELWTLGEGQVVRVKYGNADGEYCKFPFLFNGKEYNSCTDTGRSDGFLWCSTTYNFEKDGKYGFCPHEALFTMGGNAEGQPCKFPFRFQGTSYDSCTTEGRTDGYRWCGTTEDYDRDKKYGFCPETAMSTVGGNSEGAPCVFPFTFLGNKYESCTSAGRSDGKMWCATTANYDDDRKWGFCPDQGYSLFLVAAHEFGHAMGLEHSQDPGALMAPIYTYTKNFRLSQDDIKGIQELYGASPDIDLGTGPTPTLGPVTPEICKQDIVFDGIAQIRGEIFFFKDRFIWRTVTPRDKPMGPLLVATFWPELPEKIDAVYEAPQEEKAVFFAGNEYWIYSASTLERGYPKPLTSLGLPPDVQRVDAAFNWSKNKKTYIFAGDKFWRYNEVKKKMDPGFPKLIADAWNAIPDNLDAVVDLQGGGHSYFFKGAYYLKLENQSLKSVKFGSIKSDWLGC
Protocol: as §3, §4

[6] = target: MMP3 (Homo sapiens, UniProt P08254)
MMP3, sequence (P08254 100-477, species assumed): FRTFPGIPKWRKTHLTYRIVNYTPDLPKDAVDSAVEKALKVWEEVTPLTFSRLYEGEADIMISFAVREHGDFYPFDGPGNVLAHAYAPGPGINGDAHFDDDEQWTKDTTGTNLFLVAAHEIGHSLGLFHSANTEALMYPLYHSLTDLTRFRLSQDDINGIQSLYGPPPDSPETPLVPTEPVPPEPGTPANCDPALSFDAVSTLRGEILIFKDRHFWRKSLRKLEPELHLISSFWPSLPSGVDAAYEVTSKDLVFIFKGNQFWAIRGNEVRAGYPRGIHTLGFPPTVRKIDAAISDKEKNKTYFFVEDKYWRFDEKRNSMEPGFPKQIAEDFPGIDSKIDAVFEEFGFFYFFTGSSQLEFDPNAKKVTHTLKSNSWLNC
Protocol: as §3, §4

T1 sequence (P22894 101-467): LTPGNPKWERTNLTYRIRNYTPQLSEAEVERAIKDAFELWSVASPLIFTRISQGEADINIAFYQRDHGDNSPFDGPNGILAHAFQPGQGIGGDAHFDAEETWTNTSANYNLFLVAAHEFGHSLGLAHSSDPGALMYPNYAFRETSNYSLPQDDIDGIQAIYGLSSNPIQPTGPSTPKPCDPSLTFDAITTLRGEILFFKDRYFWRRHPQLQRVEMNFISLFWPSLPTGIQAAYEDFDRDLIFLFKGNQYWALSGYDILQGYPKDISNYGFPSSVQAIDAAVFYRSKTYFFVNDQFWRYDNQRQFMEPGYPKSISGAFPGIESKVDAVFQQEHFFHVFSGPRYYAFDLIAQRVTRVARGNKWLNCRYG

Compound | IC50 [1] | IC50 [2] | IC50 [3] | IC50 [4] | IC50 [5] | IC50 [6]
O=C(CSc1nnc(NC(=O)c2ccccc2)s1)NO [Compound 19847] | > 17 µM | > 17 µM | > 17 µM | > 17 µM | 2.87 µM | > 17 µM
O=C(CSc1nnc(NC(=O)COc2ccccc2)s1)NO [Compound 19848] | > 17 µM | > 17 µM | > 17 µM | > 17 µM | > 17 µM | > 17 µM
COc1cc(OC)cc(C(=O)CNc2nnc(SCC(=O)NO)s2)c1 [Compound 19849] | > 17 µM | > 17 µM | > 17 µM | > 17 µM | > 17 µM | > 17 µM
COc1ccc(-n2c(CSc3ncccn3)nnc2SCC(=O)NO)cc1 [Compound 19855] | > 17 µM | > 17 µM | > 17 µM | > 17 µM | > 17 µM | > 17 µM
O=C(CCN(Cc1cccs1)S(=O)(=O)c1ccc([N+](=O)[O-])cc1)NO [Compound 162799] | > 17 µM | > 17 µM | > 17 µM | > 17 µM | > 17 µM | > 17 µM
O=C(CCN(Cc1ccccc1)S(=O)(=O)c1ccc(F)cc1)NO [Compound 162808] | > 17 µM | > 17 µM | > 17 µM | > 17 µM | 17 µM | > 17 µM
O=C(COc1ccc(Cl)cc1Cl)NO [Compound 1596857] | > 17 µM | > 17 µM | > 17 µM | > 17 µM | > 17 µM | > 17 µM
O=[N+]([O-])c1ccc(CN2CCC3(CCc4ccccc43)CC2)o1 [SR207820] | > 17 µM | > 17 µM | > 17 µM | > 17 µM | > 17 µM | 17 µM
O=C(c1ccc(C(=O)O)c([N+](=O)[O-])c1)c1ccc(C(=O)O)c([N+](=O)[O-])c1 [SR355996] | > 17 µM | > 17 µM | > 17 µM | 17 µM | > 17 µM | > 17 µM
CSc1nnc2c(n1)OC(c1ccc([N+](=O)[O-])o1)Nc1ccccc1-2 (stereo not drawn) [SR412882] | > 17 µM | 9.7 µM | 10.5 µM | > 17 µM | > 17 µM | 15 µM
